Where a name gives a salt, the structure may show the parent alone.
Experiments:
Format in all cases: biochemical
Details in all cases: FDA-approved drug screen; compared to DMSO
recombinant PRL-1 = target: T1, recombinant PRL-1 (Homo sapiens, UniProt Q93096); assay: In vitro phosphatase assay (DiFMUP hydrolysis), PRL-1; also: test concentration or dose not given here
T1 construct: 6xHis (N, cleaved yes); made in house; host or cells: E. coli One Shot BL21 Star
T1 sequence (Q93096 1-173): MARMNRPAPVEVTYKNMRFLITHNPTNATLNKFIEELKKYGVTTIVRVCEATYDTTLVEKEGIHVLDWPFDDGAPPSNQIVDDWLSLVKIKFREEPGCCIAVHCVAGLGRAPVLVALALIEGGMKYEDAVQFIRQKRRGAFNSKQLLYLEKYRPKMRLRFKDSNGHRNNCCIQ

recombinant PRL-2 = target: T2, recombinant PRL-2 (Homo sapiens, UniProt Q12974); assay: In vitro phosphatase assay (DiFMUP hydrolysis), PRL-2;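 also: PRL-2 activity read as DiFMUP hydrolysis after 20 min at room temperature with drug, enzyme first pre-reduced at 4 °C for 20 min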
T2 construct: 6xHis (N, cleaved yes); made in house; host or cells: E. coli One Shot BL21 Star
T2 sequence (Q12974 1-167): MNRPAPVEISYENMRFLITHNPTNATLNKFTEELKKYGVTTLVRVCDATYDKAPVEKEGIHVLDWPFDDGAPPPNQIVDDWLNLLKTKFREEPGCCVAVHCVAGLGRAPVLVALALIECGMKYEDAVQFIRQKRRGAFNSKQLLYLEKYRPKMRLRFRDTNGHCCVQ

recombinant PRL-3 = target: T3, recombinant PRL-3 (Homo sapiens, UniProt O75365); assay: In vitro phosphatase assay (DiFMUP hydrolysis), PRL-3; also: test concentration or dose not given here
T3 construct: 6xHis (N, cleaved yes); made in house; host or cells: E. coli One Shot BL21 Star
T3 sequence (O75365 whole entry): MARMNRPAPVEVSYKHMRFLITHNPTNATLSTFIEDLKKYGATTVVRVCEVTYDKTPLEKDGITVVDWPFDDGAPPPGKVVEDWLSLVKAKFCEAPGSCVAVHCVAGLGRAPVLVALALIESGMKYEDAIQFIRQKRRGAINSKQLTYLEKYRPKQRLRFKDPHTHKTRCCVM

SMILES | % Phosphatase Activity (compared to DMSO) PRL-1 (recombinant PRL-1) [%] | % Phosphatase Activity (compared to DMSO) PRL-2 (recombinant PRL-2) [%] | % Phosphatase Activity (compared to DMSO) PRL-3 (recombinant PRL-3) [%]
N.N.O=C([O-])C1(C(=O)[O-])CCC1.[Pt+2] [Carboplatin] | 90 | 79 | 85
CC(C)C[C@H](NC(=O)[C@H](CCc1ccccc1)NC(=O)CN1CCOCC1)C(=O)N[C@@H](Cc1ccccc1)C(=O)N[C@@H](CC(C)C)C(=O)[C@@]1(C)CO1 [Carfilzomib (PR-171)] | 97 | 88 | 94
CCCCCCNC(=O)n1cc(F)c(=O)[nH]c1=O [Carmofur] | 89 | 95 | 73
CC(C(=O)O)c1ccc2c(c1)[nH]c1ccc(Cl)cc12 (stereo not drawn) [Carprofen] | 95 | 94 | 71
O=c1[nH]c(=O)c2ccccc2o1 [Carsalam] | 96 | 95 | 80
CC(C)(C)NCC(O)COc1cccc2c1CCC(=O)N2 (stereo not drawn) [Carteolol HCl] | 100 | 87 | 71
COc1ccccc1OCCNCC(O)COc1cccc2[nH]c3ccccc3c12 (stereo not drawn) [Carvedilol] | 97 | 128 | 111
NS(=O)(=O)c1ccc(C(=O)O)cc1 [Carzenide] | 105 | 98 | 89
CC(=O)O.CC(=O)O.CC[C@H](C)C[C@H](C)CCCCCCCCC(=O)N[C@H]1C[C@@H](O)[C@@H](NCCN)NC(=O)[C@@H]2[C@@H](O)CCN2C(=O)[C@H]([C@H](O)CCN)NC(=O)[C@H]([C@H](O)[C@@H](O)c2ccc(O)cc2)NC(=O)[C@@H]2C[C@@H](O)CN2C(=O)[C@H]([C@@H](C)O)NC1=O [Caspofungin Acetate] | 106 | 113 | 109
COc1cc2c(Oc3ccc4[nH]c(C)cc4c3F)ncnc2cc1OCCCN1CCCC1 [Cediranib (AZD2171)] | 100 | 105 | 90
Cc1nnc(SCC2=C(C(=O)O)N3C(=O)[C@@H](NC(=O)Cn4cnnn4)[C@H]3SC2)s1 [Cefazolin Sodium] | 97 | 110 | 88
C=CC1=C(C(=O)O)N2C(=O)[C@@H](NC(=O)/C(=N\O)c3csc(N)n3)[C@H]2SC1 [Cefdinir] | 109 | 110 | 88
CO/N=C(\C(=O)N[C@@H]1C(=O)N2C(C(=O)OCOC(=O)C(C)(C)C)=C(/C=C\c3scnc3C)CS[C@H]12)c1csc(N)n1 [Cefditoren Pivoxil] | 88 | 94 | 113
C=CC1=C(C(=O)O)N2C(=O)[C@@H](NC(=O)/C(=N\OCC(=O)O)c3csc(N)n3)[C@H]2SC1 [Cefixime] | 89 | 90 | 90
CO/N=C(\C(=O)N[C@@H]1C(=O)N2C(C(=O)O)=C(CSc3nnnn3C)CS[C@H]12)c1csc(N)n1.CO/N=C(\C(=O)N[C@@H]1C(=O)N2C(C(=O)O)=C(CSc3nnnn3C)CS[C@H]12)c1csc(N)n1.Cl [Cefmenoxime hydrochloride] | 92 | 98 | 84
CCN1CCN(C(=O)N[C@@H](C(=O)N[C@@H]2C(=O)N3C(C(=O)O)=C(CSc4nnnn4C)CS[C@H]23)c2ccc(O)cc2)C(=O)C1=O [Cefoperazone] | 100 | 94 | 89
CO/N=C(\C(=O)N[C@@H]1C(=O)N2C(C(=O)O)=C(COC(C)=O)CS[C@H]12)c1csc(N)n1 [Cefotaxime sodium] | 112 | 118 | 91
CC1=C(C(=O)O)N2C(=O)[C@@H](NC(=O)[C@H](N)C3=CCC=CC3)[C@H]2SC1 [Cefradine] | 95 | 76 | 102
